Activity calls are given as the source filed them.
Tests used:
[1] = target: Sphingosine 1-phosphate receptor 1 (Homo sapiens, UniProt P21453); test: Late stage counterscreen assay for S1P4 antagonists: Fluorescence dose response cell-based screening assay for antagonists of the Sphingosine 1-Phosphate Receptor 1 (S1P1). [Related pubchem assays (depositor defined):AID1510, AID1524, AID1692, AID1853, AID2332, AID489009, AID489017]; type: functional
[2] = target: Sphingosine 1-phosphate receptor 2 (Homo sapiens, UniProt O95136); test: Late stage counterscreen assay for S1P4 antagonists: Fluorescence dose response cell-based screening assay for antagonists of the Sphingosine 1-Phosphate Receptor 2 (S1P2). [Related pubchem assays (depositor defined):AID1510, AID1524, AID1692, AID1853, AID2332, AID489009, AID489017]; type: functional
Chain of Sphingosine 1-phosphate receptor 2 (O95136 whole entry): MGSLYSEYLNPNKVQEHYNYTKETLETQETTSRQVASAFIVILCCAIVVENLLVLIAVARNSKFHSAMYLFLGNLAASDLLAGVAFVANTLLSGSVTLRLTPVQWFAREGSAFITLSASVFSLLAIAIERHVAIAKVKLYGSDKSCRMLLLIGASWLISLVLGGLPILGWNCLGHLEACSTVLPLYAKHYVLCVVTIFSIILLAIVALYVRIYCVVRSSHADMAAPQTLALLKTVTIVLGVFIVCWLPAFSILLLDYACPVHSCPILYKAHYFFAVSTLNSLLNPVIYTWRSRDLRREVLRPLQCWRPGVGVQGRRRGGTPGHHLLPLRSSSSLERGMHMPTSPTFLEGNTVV

[3] = target: Sphingosine 1-phosphate receptor 5 (Homo sapiens, UniProt Q9H228); test: Late stage counterscreen assay for S1P4 antagonists: Fluorescence dose response cell-based screening assay for antagonists of the Sphingosine 1-Phosphate Receptor 5 (S1P5). [Related pubchem assays (depositor defined):AID1510, AID1524, AID1692, AID1853, AID2332, AID489009, AID489017]; type: functional
[4] = Late-stage results from the probe development effort to identify antagonists of the Sphingosine 1-Phosphate Receptor 4 (S1P4): luminescence-based cell-based dose response assay to determine cytotoxicity of antagonist compounds. [Related pubchem assays (depositor defined):AID1510, AID1524, AID1564, AID1692, AID1821, AID1853, AID2332, AID2346, AID2349, AID2350, AID2351, AID2354]; type: functional
[5] = target: Sphingosine 1-phosphate receptor 3 (Homo sapiens, UniProt Q99500); test: Late stage counterscreen assay for S1P4 antagonists: Fluorescence dose response cell-based screening assay for antagonists of the Sphingosine 1-Phosphate Receptor 3 (S1P3). [Related pubchem assays (depositor defined):AID1510, AID1524, AID1692, AID1853, AID2332, AID489009, AID489017]; type: functional
[6] = target: Intestinal-type alkaline phosphatase (Mus musculus, UniProt P24822); test: PubChem AID 488874; type: functional
HEK293 = test: cells; settings: Homo sapiens;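 note: cells exposed to compound for 14 hours overnight before viability readout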
[7] = target: T1, Intestinal-type alkaline phosphatase (Homo sapiens, UniProt P09923); test: activation of human intestinal alkaline phosphatase – biochemical, luminescent, uHTS hits, set 2, dose response (AID 488817); type: functional;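 note: potency of activators that raise enzyme activity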
T1 sequence (P09923 whole entry, the tested form may be a part): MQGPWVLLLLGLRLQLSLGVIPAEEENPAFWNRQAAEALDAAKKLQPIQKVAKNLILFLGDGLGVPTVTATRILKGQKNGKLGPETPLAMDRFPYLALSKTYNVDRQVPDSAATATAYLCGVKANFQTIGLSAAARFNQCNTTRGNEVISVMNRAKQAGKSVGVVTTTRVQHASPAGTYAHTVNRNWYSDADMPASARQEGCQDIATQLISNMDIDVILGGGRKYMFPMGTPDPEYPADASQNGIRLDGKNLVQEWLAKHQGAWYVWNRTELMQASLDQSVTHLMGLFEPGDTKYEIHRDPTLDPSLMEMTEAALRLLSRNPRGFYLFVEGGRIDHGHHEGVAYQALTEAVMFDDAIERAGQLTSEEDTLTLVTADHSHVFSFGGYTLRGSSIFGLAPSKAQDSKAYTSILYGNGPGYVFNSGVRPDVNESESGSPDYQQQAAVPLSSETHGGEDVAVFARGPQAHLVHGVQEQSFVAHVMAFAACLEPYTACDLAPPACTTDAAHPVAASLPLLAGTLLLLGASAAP

[8] = target: Nucleotide-binding oligomerization domain-containing protein 1 (Homo sapiens, UniProt Q9Y239); test: blockers of NOD1 pathway activity – revised, SAR follow-up (AID 2333); type: functional
[9] = target: Nucleotide-binding oligomerization domain-containing protein 2 (Homo sapiens, UniProt Q9HC29); test: PubChem AID 2334; type: functional
Chain of Nucleotide-binding oligomerization domain-containing protein 2 (Q9HC29 whole entry, the tested form may be a part): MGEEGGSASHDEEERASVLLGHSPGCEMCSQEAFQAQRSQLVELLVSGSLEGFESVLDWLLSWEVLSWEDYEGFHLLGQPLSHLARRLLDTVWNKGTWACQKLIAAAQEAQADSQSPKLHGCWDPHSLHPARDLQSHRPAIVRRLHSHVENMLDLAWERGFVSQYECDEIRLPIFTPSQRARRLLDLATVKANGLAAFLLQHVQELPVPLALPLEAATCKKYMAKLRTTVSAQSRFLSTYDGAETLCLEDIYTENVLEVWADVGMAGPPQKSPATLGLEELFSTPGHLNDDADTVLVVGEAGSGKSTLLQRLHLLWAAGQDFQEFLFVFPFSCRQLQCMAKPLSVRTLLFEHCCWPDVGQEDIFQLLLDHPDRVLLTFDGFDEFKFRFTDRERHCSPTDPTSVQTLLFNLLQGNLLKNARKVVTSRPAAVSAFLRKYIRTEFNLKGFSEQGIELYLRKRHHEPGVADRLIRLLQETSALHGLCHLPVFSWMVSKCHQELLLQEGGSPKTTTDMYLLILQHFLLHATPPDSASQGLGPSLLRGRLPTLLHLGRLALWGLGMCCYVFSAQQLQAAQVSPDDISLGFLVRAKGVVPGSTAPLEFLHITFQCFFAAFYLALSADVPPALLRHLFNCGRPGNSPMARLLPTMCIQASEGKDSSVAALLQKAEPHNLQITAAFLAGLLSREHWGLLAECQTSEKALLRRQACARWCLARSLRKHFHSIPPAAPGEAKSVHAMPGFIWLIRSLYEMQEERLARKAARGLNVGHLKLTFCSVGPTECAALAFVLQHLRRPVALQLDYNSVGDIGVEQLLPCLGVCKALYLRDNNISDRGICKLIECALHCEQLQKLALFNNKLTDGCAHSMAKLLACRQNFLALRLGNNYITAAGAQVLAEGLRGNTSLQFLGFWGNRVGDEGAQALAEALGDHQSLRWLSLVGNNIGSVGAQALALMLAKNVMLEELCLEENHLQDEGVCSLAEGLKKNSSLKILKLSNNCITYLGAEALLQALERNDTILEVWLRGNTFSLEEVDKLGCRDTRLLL

[10] = target: T2, Alkaline phosphatase, tissue-nonspecific isozyme (Homo sapiens, UniProt P05186); test: activation of tissue-nonspecific alkaline phosphatase – biochemical, TNAP isozyme, human IAP uHTS hits, selectivity assay for human IAP activator project, dose response (AID 488886); type: functional;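 note: potency of compounds raising TNAP activity as a selectivity check on IAP activators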
T2 sequence (P05186 whole entry): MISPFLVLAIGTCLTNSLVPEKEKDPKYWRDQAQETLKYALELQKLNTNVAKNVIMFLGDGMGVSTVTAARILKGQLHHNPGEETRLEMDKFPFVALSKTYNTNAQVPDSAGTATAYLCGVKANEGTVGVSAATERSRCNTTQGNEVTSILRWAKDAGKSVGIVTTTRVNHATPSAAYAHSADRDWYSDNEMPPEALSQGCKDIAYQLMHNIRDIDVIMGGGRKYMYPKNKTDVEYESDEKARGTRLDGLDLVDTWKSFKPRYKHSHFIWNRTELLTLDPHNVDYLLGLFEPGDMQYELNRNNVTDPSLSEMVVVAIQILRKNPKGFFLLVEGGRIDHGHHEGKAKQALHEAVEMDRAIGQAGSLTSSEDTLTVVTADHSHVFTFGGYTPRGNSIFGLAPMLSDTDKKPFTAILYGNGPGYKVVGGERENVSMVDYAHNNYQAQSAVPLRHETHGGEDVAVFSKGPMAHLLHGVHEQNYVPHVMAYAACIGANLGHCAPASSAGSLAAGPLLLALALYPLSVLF

[11] = target: T1, Intestinal-type alkaline phosphatase; test: human intestinal alkaline phosphatase activators, dose response, biochemical, luminescence, uHTS hits (AID 463120); type: functional
Tumor necrosis factor = Tumor necrosis factor (Homo sapiens, UniProt P01375); test: analog potency on TNFa NF-kB signaling – cell-based, revised, SAR follow-up (AID 2337); type: functional
Chain of Tumor necrosis factor (P01375 whole entry): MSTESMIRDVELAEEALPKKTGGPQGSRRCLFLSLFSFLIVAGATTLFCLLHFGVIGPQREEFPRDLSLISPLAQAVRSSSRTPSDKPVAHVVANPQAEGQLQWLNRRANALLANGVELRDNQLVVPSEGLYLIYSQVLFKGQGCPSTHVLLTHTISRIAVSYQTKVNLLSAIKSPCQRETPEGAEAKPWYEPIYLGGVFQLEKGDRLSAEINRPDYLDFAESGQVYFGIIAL

[12] = target: T3, Tyrosine-protein phosphatase non-receptor type 7 (Homo sapiens, UniProt P35236); type: functional
T3 sequence (P35236 whole entry): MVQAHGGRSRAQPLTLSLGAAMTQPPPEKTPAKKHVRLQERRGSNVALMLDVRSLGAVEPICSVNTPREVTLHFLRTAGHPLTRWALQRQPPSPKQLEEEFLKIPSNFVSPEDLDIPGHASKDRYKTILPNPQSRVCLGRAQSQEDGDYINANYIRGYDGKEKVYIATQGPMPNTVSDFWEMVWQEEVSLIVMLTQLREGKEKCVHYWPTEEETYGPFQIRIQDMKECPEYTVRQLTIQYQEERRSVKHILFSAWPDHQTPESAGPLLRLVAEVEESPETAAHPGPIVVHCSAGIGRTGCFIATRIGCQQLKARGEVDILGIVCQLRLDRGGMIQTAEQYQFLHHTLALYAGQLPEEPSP

[13] = target: T4, Tyrosine-protein phosphatase non-receptor type 22 (Homo sapiens, UniProt Q9Y2R2); type: functional
T4 sequence (Q9Y2R2 whole entry): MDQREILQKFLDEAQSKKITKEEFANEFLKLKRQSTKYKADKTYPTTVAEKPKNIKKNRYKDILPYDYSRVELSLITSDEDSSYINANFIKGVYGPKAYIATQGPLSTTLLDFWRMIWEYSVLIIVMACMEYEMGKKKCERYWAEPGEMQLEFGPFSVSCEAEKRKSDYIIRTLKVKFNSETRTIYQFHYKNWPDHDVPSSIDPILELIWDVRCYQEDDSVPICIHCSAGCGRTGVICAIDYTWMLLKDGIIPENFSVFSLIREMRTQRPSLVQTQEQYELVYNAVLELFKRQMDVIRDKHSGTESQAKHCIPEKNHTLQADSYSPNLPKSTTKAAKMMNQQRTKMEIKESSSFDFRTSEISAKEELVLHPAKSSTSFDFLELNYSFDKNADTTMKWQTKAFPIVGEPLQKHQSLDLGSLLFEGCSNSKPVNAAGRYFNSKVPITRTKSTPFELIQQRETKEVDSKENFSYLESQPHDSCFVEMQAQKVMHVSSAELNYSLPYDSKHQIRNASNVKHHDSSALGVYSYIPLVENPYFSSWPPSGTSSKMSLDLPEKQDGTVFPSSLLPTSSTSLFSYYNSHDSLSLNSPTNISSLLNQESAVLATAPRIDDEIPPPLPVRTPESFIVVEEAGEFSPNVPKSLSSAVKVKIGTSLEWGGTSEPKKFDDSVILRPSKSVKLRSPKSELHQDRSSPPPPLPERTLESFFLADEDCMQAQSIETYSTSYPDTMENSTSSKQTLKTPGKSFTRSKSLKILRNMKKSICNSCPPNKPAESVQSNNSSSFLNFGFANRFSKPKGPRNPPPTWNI

Galanin receptor type 3 = target: T5, Galanin receptor type 3 (Homo sapiens, UniProt O60755); test: Fluorescence-based cell-based primary high throughput dose response assay to identify antagonists of the Galanin Receptor 3 (GalR3).; type: functional
T5 sequence (O60755 whole entry): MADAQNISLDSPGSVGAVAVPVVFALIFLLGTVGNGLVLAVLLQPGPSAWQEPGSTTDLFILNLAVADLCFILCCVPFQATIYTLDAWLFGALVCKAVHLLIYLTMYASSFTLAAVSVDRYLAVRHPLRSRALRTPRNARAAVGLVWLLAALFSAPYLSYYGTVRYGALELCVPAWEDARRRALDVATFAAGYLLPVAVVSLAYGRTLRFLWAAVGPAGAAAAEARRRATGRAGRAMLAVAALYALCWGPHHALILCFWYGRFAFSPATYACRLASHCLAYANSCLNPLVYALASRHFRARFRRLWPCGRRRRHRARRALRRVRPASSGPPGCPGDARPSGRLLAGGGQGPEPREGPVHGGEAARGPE

[14] = Trypanosoma cruzi growth suppression in host cells – NIH3T3 host cells, beta-gal luminescence, confirmation (AID 2044); type: functional, cell-based;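 note: intracellular parasites grown in NIH/3T3 mouse fibroblasts as host cells; luminescent beta-galactosidase reporter signal from transgenic T. cruzi replicating inside host cells; inhibitors lower the luminescence signal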
[15] = target: T4, Tyrosine-protein phosphatase non-receptor type 22; type: functional; remark: listed apart in the source
cells = type: functional, cell-based; settings: HEK-CNG
[16] = NIH3T3 cell viability loss – ATP luminescence, mouse fibroblasts, counter-screen, dose response (AID 2010); type: functional, cell-based;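 note: cells exposed to compound for about 90 hours before reading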
SUMO E1/E2 = SUMO E1/E2 (Homo sapiens, UniProt P63279+Q9UBE0+Q9UBT2); test: SAR analysis of SUMOylation using HTRF in an in-Vitro dose response assay. [Related pubchem assays (depositor defined):AID2006, AID2011, AID2018, AID2069, AID2658]; type: functional
Chain of SUMO E1/E2 (Q9UBE0 whole entry): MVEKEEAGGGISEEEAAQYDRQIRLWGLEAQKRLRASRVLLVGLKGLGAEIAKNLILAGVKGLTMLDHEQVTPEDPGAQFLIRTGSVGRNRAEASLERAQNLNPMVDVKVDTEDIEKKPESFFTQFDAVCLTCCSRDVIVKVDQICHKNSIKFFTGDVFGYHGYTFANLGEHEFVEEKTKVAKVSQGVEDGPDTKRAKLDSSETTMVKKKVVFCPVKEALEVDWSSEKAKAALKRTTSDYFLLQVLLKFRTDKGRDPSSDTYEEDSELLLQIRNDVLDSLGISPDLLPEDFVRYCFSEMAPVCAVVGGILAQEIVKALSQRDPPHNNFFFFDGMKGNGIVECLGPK
Chain of SUMO E1/E2 (Q9UBT2 whole entry): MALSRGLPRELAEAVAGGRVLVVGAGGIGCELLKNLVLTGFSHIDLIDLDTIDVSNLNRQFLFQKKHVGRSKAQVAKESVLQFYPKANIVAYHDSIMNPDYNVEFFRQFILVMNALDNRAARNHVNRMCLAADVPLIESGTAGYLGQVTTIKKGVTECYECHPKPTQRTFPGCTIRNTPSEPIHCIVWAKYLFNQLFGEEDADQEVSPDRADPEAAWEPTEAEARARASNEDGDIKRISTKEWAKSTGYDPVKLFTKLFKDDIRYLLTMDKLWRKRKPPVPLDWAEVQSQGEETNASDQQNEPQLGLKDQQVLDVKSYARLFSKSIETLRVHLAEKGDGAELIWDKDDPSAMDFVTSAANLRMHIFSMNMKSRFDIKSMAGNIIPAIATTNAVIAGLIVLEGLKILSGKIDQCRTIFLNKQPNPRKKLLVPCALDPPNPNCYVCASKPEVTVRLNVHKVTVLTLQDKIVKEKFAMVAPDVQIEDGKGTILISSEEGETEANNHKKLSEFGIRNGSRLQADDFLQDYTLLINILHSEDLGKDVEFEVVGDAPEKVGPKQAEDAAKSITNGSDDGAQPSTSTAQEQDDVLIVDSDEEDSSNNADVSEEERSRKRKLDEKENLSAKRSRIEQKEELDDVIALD
Chain of SUMO E1/E2 (P63279 whole entry): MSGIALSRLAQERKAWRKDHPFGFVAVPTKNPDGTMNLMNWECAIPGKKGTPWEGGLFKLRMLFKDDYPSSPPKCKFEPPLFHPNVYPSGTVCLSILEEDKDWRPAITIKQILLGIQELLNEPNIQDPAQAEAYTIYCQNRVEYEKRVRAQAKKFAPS

Mu-type opioid receptor = Mu-type opioid receptor (Homo sapiens, UniProt P35372); test: HTS Image-Based Screen for Agonists of the MOR Receptor. [Related pubchem assays (depositor defined):AID1777, AID1785, AID1786, AID2133]; type: functional;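 note: imaging of beta-arrestin GFP recruitment into spots after receptor activation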
Chain of Mu-type opioid receptor (P35372 whole entry): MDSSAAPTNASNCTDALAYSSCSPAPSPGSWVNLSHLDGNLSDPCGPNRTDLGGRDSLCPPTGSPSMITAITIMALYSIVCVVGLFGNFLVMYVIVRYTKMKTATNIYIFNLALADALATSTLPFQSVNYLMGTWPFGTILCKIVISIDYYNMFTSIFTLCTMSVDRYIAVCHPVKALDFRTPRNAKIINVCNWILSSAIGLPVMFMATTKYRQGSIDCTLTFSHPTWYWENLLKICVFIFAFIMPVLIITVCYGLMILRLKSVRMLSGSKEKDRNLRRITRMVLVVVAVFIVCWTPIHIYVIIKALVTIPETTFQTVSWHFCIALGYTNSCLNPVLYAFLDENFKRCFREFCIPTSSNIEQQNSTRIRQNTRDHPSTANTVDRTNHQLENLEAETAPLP

[17] = target: T6, Kappa-type opioid receptor (Homo sapiens, UniProt P41145); type: functional
T6 sequence (P41145 whole entry): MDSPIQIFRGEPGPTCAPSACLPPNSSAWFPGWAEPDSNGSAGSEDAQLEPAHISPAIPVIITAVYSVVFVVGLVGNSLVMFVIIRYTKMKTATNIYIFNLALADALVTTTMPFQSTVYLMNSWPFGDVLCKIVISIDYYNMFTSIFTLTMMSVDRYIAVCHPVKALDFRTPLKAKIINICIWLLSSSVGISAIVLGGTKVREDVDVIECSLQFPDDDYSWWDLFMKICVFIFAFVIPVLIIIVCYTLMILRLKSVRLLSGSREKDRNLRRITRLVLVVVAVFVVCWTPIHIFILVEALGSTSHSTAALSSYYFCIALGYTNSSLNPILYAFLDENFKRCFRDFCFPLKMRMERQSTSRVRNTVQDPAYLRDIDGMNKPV

Ion channel NompC = Ion channel NompC (Danio rerio, UniProt Q7T1G6); test: Fluorescence counterscreen assay for TRPML3 agonists: dose response cell-based high-throughput screening assay to identify agonists of the transient receptor potential channel N1 (TRPN1). [Related pubchem assays: 1526, 1424, 1448 ]; type: functional
[18] = loss of viability in HepG2 cells – cell-based, CellTiter-Glo, cherry-picked, cytotoxicity control for Shn3 inhibitor project, dose response (AID 624134); type: functional
[19] = target: T7, Delta-type opioid receptor (Homo sapiens, UniProt P41143); test: HTS Image-Based Screen for Antagonists of the DOR Receptor. [Related pubchem assays (depositor defined):AID1777, AID1785, AID1786, AID2133]; type: functional
T7 sequence (P41143 whole entry): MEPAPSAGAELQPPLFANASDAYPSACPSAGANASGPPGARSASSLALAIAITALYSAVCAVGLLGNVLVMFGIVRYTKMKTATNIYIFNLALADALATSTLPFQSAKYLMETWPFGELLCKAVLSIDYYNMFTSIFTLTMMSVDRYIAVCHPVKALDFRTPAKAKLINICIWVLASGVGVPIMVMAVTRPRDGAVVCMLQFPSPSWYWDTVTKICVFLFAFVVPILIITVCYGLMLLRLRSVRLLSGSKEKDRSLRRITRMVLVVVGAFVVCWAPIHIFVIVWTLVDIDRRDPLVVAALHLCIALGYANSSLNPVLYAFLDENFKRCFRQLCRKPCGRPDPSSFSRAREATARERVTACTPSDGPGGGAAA

Mucolipin-3 = target: T8, Mucolipin-3 (Homo sapiens, UniProt Q8TDD5); test: Dose response cell-based high-throughput screening assay for agonists of the transient receptor potential channel ML3 (TRPML3). [Related pubchem assays: 1526, 1424, 1448 ]; type: functional
T8 sequence (Q8TDD5 whole entry): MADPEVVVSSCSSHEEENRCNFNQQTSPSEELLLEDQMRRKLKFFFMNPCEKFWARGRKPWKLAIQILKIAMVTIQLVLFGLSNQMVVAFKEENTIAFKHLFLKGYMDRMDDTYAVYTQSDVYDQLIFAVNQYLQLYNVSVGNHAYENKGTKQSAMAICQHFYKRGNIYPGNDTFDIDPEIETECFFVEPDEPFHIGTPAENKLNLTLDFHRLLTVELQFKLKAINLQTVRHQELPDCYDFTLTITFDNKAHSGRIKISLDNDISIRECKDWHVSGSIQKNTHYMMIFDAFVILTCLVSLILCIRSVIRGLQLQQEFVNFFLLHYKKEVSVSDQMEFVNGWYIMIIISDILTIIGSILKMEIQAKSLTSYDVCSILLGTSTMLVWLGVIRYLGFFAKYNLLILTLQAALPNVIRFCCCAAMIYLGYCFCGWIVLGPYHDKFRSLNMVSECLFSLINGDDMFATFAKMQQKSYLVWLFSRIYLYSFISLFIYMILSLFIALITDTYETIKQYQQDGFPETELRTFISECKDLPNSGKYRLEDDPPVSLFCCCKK

[20] = target: T7, Delta-type opioid receptor; test: HTS Image-Based Screen for Agonists of the DOR Receptor. [Related pubchem assays (depositor defined):AID1777, AID1786, AID2133]; type: functional
[21] = target: T6, Kappa-type opioid receptor; type: functional; remark: listed apart in the source
[22] = non-specific 3'UTR reporter inhibition in Clone20-Shn3RL – cell-based, Renilla luciferase, cherry-picked, counter-screen for Shn3 inhibitor project, dose response (AID 624133); type: functional
[23] = reduction of Shn3 3'UTR-driven luciferase in osteoblasts – cell-based, Clone20 osteoblasts, firefly luciferase, cherry-picked, dose response (AID 624132); type: functional;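 note: firefly luciferase luminescence from reporter carrying the Shn3 3'UTR in osteoblasts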

Chain of Sphingosine 1-phosphate receptor 1 (P21453 whole entry): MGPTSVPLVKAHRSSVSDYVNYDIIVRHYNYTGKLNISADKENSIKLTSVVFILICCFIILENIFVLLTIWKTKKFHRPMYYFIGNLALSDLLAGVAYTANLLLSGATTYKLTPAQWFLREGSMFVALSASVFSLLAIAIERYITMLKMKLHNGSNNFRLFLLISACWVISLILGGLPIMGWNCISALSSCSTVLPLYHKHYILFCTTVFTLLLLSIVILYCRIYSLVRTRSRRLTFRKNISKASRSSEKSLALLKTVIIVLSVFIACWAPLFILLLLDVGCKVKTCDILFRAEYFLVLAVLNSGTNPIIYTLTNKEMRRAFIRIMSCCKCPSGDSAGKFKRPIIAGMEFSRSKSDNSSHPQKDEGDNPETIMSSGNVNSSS

Structure (SMILES): CCc1cccc(CC)c1NC(=O)c1ccc(-c2cc(Cl)ccc2Cl)o1
- IC50 [1]: > 25 µM (inactive)
- IC50 [2]: > 25 µM (inactive)
- IC50 [3]: > 25 µM (inactive)
- CC50 [4]: > 20 µM (inactive)
- IC50 [5]: > 25 µM (inactive)

Structure (SMILES): Cc1cc(Br)ccc1SCC(=O)OC/C(O)=C(\C#N)c1nc2ccccc2[nH]1
- IC50 [6]: > 100 µM (inactive)
- IC50 (HEK293): > 20 µM (inactive)
- EC50 [7]: 27.5 µM (active)
- IC50 [8]: > 20 µM (inactive)
- IC50 [9]: > 20 µM (inactive)
- EC50 [10]: 24.1 µM (active)
- EC50 [11]: 13.4 µM (active)
- IC50 (Tumor necrosis factor): > 20 µM (inactive)

Structure (SMILES): COC(=O)C1CCN(Cc2ccc(OCCCN3CCN(c4ccc([N+](=O)[O-])cc4)CC3)cc2)CC1
- IC50 [12]: > 79.4 µM (inactive)
- IC50 [13]: > 79.4 µM (inactive)
- IC50 (Galanin receptor type 3): 1.33 µM (active)
- EC50 [14]: 0.257 µM (active)
- IC50 [15]: > 79.4 µM (inactive)
- EC50 (cells): > 29.9 µM (inactive)
- EC50 [16]: > 30 µM (not active)

Structure (SMILES): C/C(=N\OCc1nc2ccccc2c(=O)n1/N=C/c1ccc(Cl)cc1)c1ccccc1
- IC50 (SUMO E1/E2): > 100 µM (inactive)

Structure (SMILES): COc1ccc(CCN2C(=O)CS/C2=N\c2ccc(C(C)C)cc2)cc1OC
- EC50 (Mu-type opioid receptor): > 32 µM (inactive)
- EC50 [17]: 5.88 µM
- EC50 (Ion channel NompC): > 29.9 µM (not active)
- AC50 [18]: 5.37 µM (active)
- IC50 [19]: > 32 µM (inactive)
- EC50 (Mucolipin-3): > 29.9 µM (not active)
- EC50 [20]: > 32 µM (inactive)
- EC50 [21]: 6.83 µM
- AC50 [22]: 7.07 µM (active)
- AC50 [23]: 4.49 µM (active)
